Source: paper PMC12715756 (ACS Chemical Neuroscience, 2025)

How the values were obtained:
[1] = biological target: T1, 5-HT2A (Homo sapiens, UniProt P28223); experiment: Gq dissociation BRET assay in HEK293T cells; assay type: cell-based; conditions: for EC50 / Emax ± SEM, %5-HT response 5-HT2A: Gq dissociation BRET; for Emax ± SEM, %5-HT response 5-HT2A: relative to 5-HT; for Emax: HEK-293T, read-out: Emax ± SEM, %5-HT response 5-HT2A, Gq dissociation BRET, relative to 5-HT
T1 construct: expressed in transfected cells; host or cells: HEK293T (ATCC; RRID:CVCL_0063), transient transfection

[2] = biological target: T2, 5-HT2B (Homo sapiens, UniProt P41595); experiment: Gq dissociation BRET assay in HEK293T cells; assay type: cell-based; conditions: for EC50: Gq dissociation BRET; for Emax: HEK-293T, read-out: Emax ± SEM, %5-HT response 5-HT2B
T2 construct: expressed in transfected cells; host or cells: HEK293T (ATCC; RRID:CVCL_0063), transient transfection

[3] = tested on: male C57BL/6J mice; experiment: Head-twitch response (HTR); assay type: in vivo; conditions: IP, 30 min, doses based on the salt form
Description: (§1) Male Swiss CD-1 mice (Janvier, Le Genest, France), weighing 30–35 g and aged 6–8 weeks, were used for HLA, thigmotaxis, CPP, and core body temperature experiments. Animals were housed under temperature-controlled conditions (22 ± 1 °C) with a 12 h light/dark cycle and had free access to food and water (standard laboratory diet, Panlab SL, Barcelona, Spain). Doses for HLA, thigmotaxis, CPP, and core body temperature experiments were calculated based on the free base form of each compound. For HTR experiments, male C57BL/6J mice (6–8 weeks old) were obtained from Jackson Laboratories (Bar Harbor, ME, USA) and housed up to four per cage with a reversed light-cycle (lights on at 1900 h, off at 0700 h). Food and water were provided ad libitum, except during behavioral testing. Testing was conducted between 1000 and 1830 h. Doses for HTR experiments were calculated based on the respective salt forms of the compounds.
The HTR was assessed using a head-mounted magnet and a magnetometer detection coil. Mice were anesthetized, a small incision was made in the scalp, and a small neodymium magnet was attached to the dorsal surface of the cranium by using dental cement. Following a two week recovery period, HTR experiments were carried out in a well-lit room with at least 7 days between sessions to avoid carryover effects. Mice (N = 4–7/group) received intraperitoneal (IP) injections of vehicle (saline) or test drug (5 mL/kg injection volume), and then activity was recorded in a glass cylinder surrounded by a magnetometer coil for 30 min. Doses for HTR experiments were calculated based on the respective salt forms of the compounds. Coil voltage was low-pass filtered (1 kHz cutoff frequency), amplified, digitized (20 kHz sampling rate, 16-bit ADC resolution), and saved to disk using a Powerlab 8/35 data acquisition system with LabChart software (ver. 8.1 ADInstruments, Colorado Springs, CO, USA). To detect head twitches, events in the recordings were transformed to scalograms, deep features were extracted using the deep convolutional neural network ResNet-50, and then the images were classified using a support vector machine (SVM). Head twitch counts were analyzed using one-way ANOVA. Posthoc comparisons were made using Dunnett’s test.

[4] = biological target: T3, DAT (Homo sapiens, UniProt Q01959)
[5] = tested on: DAT; conditions: incubation at IC50 concentration for 60 min
[6] = biological target: T3, DAT; experiment: cell-based; conditions: read-out: Emax [95%-CI], DAT mediated [3H]MPP+ release
[7] = biological target: T4, SERT (Homo sapiens, UniProt P31645); experiment: Uptake inhibition assay, [3H]5-HT uptake in HEK293 cells; assay type: cell-based; set-up: expressed in transfected cells
[8] = biological target: T5, NET (Homo sapiens, UniProt P23975); experiment: Uptake inhibition assay, [3H]MPP+ uptake in HEK293 cells; assay type: cell-based; set-up: expressed in transfected cells
[9] = biological target: T6, human organic cation transporter 1 (OCT1) (Homo sapiens, UniProt O15245); experiment: as above
T6 sequence (O15245 1-554): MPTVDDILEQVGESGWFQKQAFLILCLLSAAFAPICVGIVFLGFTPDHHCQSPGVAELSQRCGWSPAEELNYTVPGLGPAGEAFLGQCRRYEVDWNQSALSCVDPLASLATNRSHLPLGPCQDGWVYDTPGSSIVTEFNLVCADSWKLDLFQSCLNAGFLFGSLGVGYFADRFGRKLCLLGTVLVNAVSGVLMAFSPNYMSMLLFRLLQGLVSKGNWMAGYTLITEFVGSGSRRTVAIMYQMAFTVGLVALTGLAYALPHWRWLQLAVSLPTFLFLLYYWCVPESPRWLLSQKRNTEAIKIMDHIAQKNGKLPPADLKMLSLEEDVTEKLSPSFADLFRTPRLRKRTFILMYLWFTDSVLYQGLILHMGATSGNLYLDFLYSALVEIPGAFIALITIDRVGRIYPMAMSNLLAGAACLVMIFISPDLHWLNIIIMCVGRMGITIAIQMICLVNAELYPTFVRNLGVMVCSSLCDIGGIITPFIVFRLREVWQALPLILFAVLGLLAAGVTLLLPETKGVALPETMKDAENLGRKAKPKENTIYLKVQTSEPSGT

[10] = biological target: T7, OCT2 (Homo sapiens, UniProt O15244); experiment: as above
T7 sequence (O15244 1-555): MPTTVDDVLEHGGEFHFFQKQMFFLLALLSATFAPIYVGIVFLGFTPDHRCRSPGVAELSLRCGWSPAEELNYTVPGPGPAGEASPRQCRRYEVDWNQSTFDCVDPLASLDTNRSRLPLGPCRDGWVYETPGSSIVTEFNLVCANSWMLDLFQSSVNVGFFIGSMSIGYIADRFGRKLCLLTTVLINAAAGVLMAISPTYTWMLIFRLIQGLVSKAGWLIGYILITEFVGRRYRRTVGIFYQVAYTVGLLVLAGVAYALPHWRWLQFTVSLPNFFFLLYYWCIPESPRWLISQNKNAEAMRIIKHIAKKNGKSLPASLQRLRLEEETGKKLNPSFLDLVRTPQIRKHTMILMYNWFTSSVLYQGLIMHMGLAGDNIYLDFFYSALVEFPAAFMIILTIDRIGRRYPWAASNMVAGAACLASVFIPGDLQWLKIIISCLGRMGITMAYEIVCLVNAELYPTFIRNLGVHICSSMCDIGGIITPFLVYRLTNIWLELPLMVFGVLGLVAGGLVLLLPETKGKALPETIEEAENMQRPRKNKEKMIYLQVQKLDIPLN

[11] = biological target: T4, SERT; experiment: Release (superfusion) assay, SERT mediated [3H]5-HT efflux; conditions: for Emax: read-out: Emax [95%-CI], SERT mediated [3H]5-HT efflux
[12] = biological target: T5, NET; experiment: Release (superfusion) assay, NET mediated [3H]MPP+ release; conditions: for Emax: read-out: Emax [95%-CI], NET mediated [3H]MPP+ release
[13] = Metabolic stability, substrate depletion in pooled human liver microsomes; conditions: human, pooled human liver microsomes
[14] = tested on: male Swiss CD-1 mice; experiment: Conditioned place preference (CPP); assay type: in vivo; conditions: 10 mg/kg i.p., compared to saline
Description: as §1
For this experiment, an apparatus with two distinct compartments, differing in tactile and visual cues, connected by a central corridor, was used. The conditioned place preference (CPP) procedure consisted of three phases: preconditioning, conditioning, and postconditioning. In the preconditioning phase (day 0), mice were placed in the middle of the corridor and allowed to freely explore both compartments for 15 min. The time spent in each compartment was recorded and monitored using specific tracking software (Smart 3.0 Panlab, Barcelona, Spain). In the conditioning phase (day 1–day 8), access to the corridor was closed. […] On alternate days, , mice received a saline i.p. injection and were placed in the other compartment for 30 min. Mice in the control group received a saline injection in every session. The compartments and sessions in which the drug was administered were randomized. In the postconditioning phase (test day), the same conditions as the preconditioning phase were reinstated. A preference score was determined by calculating the difference in time spent in the drug-paired compartment between the post- and preconditioning phases.

[15] = pHLM; literature data ref 9 (Alberto-Silva et al., 2024); cited from earlier work
[16] = tested on: NGF-differentiated PC12 cells; experiment: Cytotoxicity, WST-8 assay; conditions: 24 hours

T2 sequence (P41595 whole entry): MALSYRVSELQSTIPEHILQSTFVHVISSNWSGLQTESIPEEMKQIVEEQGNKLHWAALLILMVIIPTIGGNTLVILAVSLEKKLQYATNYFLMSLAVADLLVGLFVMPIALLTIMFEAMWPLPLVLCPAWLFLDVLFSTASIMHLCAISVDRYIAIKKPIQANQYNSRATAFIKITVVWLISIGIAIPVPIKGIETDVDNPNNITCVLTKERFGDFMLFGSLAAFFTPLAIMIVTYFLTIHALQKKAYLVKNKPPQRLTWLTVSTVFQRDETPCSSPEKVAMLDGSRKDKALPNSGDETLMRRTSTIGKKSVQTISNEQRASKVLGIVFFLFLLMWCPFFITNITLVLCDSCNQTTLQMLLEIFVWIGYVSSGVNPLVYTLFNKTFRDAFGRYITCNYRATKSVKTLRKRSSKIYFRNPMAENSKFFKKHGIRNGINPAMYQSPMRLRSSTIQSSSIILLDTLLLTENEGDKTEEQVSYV
T5 sequence (P23975 whole entry): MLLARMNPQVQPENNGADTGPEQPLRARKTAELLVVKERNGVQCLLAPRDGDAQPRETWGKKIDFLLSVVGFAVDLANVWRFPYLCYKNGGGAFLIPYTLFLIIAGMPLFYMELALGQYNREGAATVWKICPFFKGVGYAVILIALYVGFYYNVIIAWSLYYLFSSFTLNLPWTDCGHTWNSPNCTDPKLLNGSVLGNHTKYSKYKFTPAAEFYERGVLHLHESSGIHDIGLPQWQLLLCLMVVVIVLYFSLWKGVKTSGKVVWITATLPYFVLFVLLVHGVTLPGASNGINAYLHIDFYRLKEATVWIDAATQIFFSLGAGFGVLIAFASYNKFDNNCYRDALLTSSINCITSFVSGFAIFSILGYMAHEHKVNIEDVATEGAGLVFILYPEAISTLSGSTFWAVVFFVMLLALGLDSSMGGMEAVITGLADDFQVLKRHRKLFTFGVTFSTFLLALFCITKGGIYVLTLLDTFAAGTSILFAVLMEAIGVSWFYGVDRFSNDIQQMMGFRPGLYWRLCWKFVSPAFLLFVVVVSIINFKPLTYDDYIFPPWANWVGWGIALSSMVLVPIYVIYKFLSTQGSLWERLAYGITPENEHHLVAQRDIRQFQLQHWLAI
T1 sequence (P28223 whole entry): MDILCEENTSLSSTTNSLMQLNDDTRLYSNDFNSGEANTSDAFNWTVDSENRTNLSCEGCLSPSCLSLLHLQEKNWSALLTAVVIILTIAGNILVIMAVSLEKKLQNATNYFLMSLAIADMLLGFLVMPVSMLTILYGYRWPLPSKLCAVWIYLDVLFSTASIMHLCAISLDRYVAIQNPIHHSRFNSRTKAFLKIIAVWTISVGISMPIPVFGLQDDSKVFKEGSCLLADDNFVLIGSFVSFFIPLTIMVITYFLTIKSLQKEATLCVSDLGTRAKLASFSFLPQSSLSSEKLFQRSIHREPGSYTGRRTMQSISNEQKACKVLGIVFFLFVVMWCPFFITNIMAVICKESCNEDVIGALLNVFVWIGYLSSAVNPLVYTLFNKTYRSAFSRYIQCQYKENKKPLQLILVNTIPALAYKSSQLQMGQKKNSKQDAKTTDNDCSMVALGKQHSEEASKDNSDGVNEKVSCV
T3 sequence (Q01959 whole entry): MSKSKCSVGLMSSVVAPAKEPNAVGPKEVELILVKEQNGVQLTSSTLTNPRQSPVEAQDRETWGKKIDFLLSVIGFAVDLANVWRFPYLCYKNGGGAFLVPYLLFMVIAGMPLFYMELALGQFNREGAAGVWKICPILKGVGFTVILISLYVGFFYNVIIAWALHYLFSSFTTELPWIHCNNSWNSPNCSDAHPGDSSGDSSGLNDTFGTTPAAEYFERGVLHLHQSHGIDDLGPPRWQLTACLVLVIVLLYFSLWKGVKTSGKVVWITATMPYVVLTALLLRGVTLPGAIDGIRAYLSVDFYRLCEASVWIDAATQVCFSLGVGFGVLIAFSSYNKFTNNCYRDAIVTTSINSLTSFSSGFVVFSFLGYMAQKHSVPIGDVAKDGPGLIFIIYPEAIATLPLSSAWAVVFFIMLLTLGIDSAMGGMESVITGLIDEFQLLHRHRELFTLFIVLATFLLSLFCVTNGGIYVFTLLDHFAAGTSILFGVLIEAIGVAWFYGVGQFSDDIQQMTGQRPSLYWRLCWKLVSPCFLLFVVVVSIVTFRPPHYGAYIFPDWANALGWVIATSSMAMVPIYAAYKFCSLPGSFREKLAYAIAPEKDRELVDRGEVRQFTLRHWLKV
T4 sequence (P31645 whole entry): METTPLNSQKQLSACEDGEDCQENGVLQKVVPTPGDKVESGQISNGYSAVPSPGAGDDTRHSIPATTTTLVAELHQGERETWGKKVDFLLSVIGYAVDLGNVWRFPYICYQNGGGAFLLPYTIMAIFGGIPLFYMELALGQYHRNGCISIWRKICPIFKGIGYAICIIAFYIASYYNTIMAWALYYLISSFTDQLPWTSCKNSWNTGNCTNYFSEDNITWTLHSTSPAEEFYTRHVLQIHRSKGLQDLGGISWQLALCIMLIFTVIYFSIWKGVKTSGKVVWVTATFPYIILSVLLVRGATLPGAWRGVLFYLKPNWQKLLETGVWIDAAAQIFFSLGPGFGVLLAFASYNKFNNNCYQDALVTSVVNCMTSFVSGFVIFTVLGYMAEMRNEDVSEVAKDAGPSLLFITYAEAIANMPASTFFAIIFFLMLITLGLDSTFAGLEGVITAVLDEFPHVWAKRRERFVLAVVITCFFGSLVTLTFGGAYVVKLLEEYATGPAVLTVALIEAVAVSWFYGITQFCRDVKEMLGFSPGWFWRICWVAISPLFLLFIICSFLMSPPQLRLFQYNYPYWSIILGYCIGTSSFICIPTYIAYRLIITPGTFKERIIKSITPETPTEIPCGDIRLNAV

| SMILES | EC50 ([1]; EC50 5-HT2A) | Emax ± SEM, %5-HT response 5-HT2A [1] | Emax [1] | EC50 ([2]; EC50 5-HT2B) | Emax [2] | HTR counts [3] | type of releaser at DAT [4] | Emax [6] | IC50 [7] | IC50 [8] | IC50 [9] | IC50 [10] | EC50 [11] | type of releaser at SERT [11] | Emax [11] | EC50 [12] | type of releaser at NET [12] | Emax [12] | further results |
| --- | --- | --- | --- | --- | --- | --- | --- | --- | --- | --- | --- | --- | --- | --- | --- | --- | --- | --- | --- |
| CC(N)Cc1ccc2c(c1)OCO2 (stereo not shown) [MDA, 3,4-Methylenedioxyamphetamine, reference compound] | 0.905 µM | 87.8 ± 2.4% | > 70% | 0.139 µM | 104 ± 4.9% | dose-related increase in HTR counts peaking at 3 mg/kg | partial releasers | 67.2% | 22.9 ± 2.27 µM | 3.33 ± 0.47 µM | 6.93 ± 2.63 µM | 5.13 ± 1.18 µM | 4.35 µM | partial releasers | 45.5% | 0.35 µM | full releasers | 126% | transporter expression on plasma membrane level [5]: expression levels slightly increased; half-life at 0.5 μM [13]: > 2.5 h |
| CNC(C)Cc1ccc2c(c1)OCO2 (stereo not shown) [MDMA, 3,4-Methylenedioxymethamphetamine, reference compound] | 3.13 µM | 66.0 ± 2.3% | < 70% | 0.531 µM | 59.9 ± 5.1% | Neither MDMA nor SDMA induced an appreciable increase in HTR counts | partial releasers | 43.1% | 6.47 ± 0.93 µM | 3.17 ± 0.72 µM | 5.09 ± 3.14 µM | 5.3 ± 0.25 µM | 1.95 µM | partial releasers | 39.3% | 0.73 µM | full releasers | 111% | EC50 ([1]; pEC50 ± SEM 5-HT2A): 3.09 µM; EC50 ([2]; pEC50 ± SEM 5-HT2B): 0.525 µM; rewarding effects (CPP preference score) [14]: induce rewarding effects; in vitro half-life (t1/2) [15]: > 2.5 h; concentration at which cytotoxicity starts [16]: 2000 µM |
